Measurements: article PMC4072806, “Defining Immune Engagement Thresholds for In Vivo Control of Virus-Driven Lymphoproliferation” (PLoS Pathogens, 2014)
Read-outs that look alike come from different tables or passages of the source. No end group written: not given here.

Columns and labels:
H2K^b = biological target: T1, H2K^b (Mus musculus, UniProt P01901); type: cell-based
T1 construct: […]; endogenous in cells; host or cells: RMA/S cells (TAP-deficient)
Experimental: H2K^b stabilization was determined with TAP-deficient RMA/S cells. These were incubated overnight at 26°C to promote the export of empty H2K^b complexes, then loaded with graded concentrations of OVA or APL peptides (Thermo Scientific) for 2 h at 26°C and subsequently transferred to 37°C for 2 h to destabilize empty MHC molecules. The cells were then washed twice, stained with anti-H2K^b (AF6-88.5.5.3, eBioscience), and analysed on a LSR Fortessa (BD Biosciences). Mean fluorescence intensities were determined with FlowJo (Tree Star). To measure the ex vivo stimulation of naïve OT-I T cells by OVA and APLs, CD8^+ T cells from the spleens of naïve OT-I mice were purified by negative selection (CD8^+ T cell isolation kit, Miltenyi Biotech); for equivalent peptide/MHC class I numbers, irradiated (7500 rads) RMA/S cells were loaded with different peptides at 26°C, then incubated at 37°C; and 5×10^4 OT-I T cells were cultured with 2.5×10^4 RMA/S cells for 72 h at 37°C. IFNγ levels in culture supernatants were measured by ELISA (DuoSet ELISA development kit, R&D Systems). The data were fitted to sigmoidal dose-response curves and EC50 values calculated using GraphPad Prism.

[1] = test system: OT-I CTL (H2K^b-OVA-specific TcR of OT-I); assay: Functional avidity of OT-I CTL by IFNγ production (ELISA); type: cell-based, mouse; details: Figure 1C, naive OT-I CD8+ T cells with peptide-loaded irradiated RMA/S cells, 72 h 37°C, repeated in duplicates 4 times, read-out: OT-I sensitivity EC50
[2] = biological target: H2K^b (MHC class I, empty complexes on TAP-deficient RMA/S cells) (mouse (endogenous in RMA/S))
[3] = Figure 1B, TAP-deficient RMA/S cells, peptide 2 h 26°C then 2 h 37°C, anti-H2K^b FACS MFI, experiment repeated 3 times, read-out: EC50 (H2K^b stabilization)

Row | Compound | EC50 [1] [nM] | EC50 (H2K^b; [3]) [nM] | further results
1 | CC[C@H](C)[C@H](NC(=O)[C@@H](NC(=O)[C@@H](N)CO)[C@@H](C)CC)C(=O)N[C@@H](CC(N)=O)C(=O)N[C@@H](Cc1ccccc1)C(=O)N[C@@H](CCC(=O)O)C(=O)N[C@@H](CCCCN)C(=O)N[C@@H](CC(C)C)C(=O)O [OVA, reference compound] | 0.0182 | – | EC50 (H2K^b; RMA/S cells, read-out: concentration giving 50% maximal H2K^b stabilization (EC50)): 40 nM
2 | A8 altered peptide ligand of OVA (mutated anchor residue) | – | – | fold more peptide than E1 for equivalent H2K^b stabilization [2]: 10 fold
3 | E1 altered peptide ligand of OVA (EIINFEKL) | – | – | fold more peptide than OVA for equivalent H2K^b stabilization [2]: 6 fold
4 | EIINFEKL [E1] | 7780 | 235 | –
5 | OVA peptide, amino acid residues 257-264 of ovalbumin (SIINFEKL) | – | – | EC50 [2]: 40 nM
6 | SIIGFEKL [G4] | 3610 | 34 | –
7 | SIINFEKA [A8] | 10300 | 2470 | –
8 | SIIQFEKL [Q4] | 0.243 | 30 | –
9 | SIIRFEKL [R4] | – | 56 | –
10 | SIIVFEKL [V4] | 68.5 | 63 | –
